molecular target: mTOR/GbL/Raptor (mTORC1) (Homo sapiens, UniProt P42345); assay: mTOR/GbL/Raptor (mTORC1) ELISA assay; assay type: biochemical; details: phosphorylation of 4E-BP1; 0.2 nM mTORC1, 10 μM ATP; read-out: IC50 in this assay (mTORC1 ELISA)
In short: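 ELISA read-out: phospho-4E-BP1 captured on Ni-chelate plates and detected with anti-phospho antibody plus HRP-anti-IgG luminescence. The kinase step ran 120 min at ambient temperature with 0.2 nM human mTORC1, 10 µM ATP, 50 nM His-4E-BP1, 10 mM MnCl2, pH 7.2 HEPES.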

Row | SMILES | IC50 [nM]
1 | Cc1nc2ncc(-c3ccc4c(c3)CN(c3ncnc5c3CC[C@H](C)C5)CCO4)cc2[nH]1 [Example 560, 7-(2-methyl-1H-imidazo[4,5-b]pyridin-6-yl)-4-[(7S)-7-methyl-5,6,7,8-tetrahydroquinazolin-4-yl]-2,3,4,5-tetrahydro-1,4-benzoxazepine] | 50 to 250
2 | Cc1nc2ncc(-c3ccc4c(c3)CN(c3ncnc(N5CCN(C)CC5)c3C)CCO4)cc2[nH]1 [Example 563, 7-(2-methyl-1H-imidazo[4,5-b]pyridin-6-yl)-4-[5-methyl-6-(4-methylpiperazin-1-yl)pyrimidin-4-yl]-2,3,4,5-tetrahydro-1,4-benzoxazepine] | 250 to 1000
3 | Cc1nc2ncc(-c3ccc4c(c3)CN(c3ncnc(C)c3C(C)C)CCO4)cc2[nH]1 [Example 564, 7-(2-methyl-1H-imidazo[4,5-b]pyridin-6-yl)-4-[6-methyl-5-(1-methylethyl)pyrimidin-4-yl]-2,3,4,5-tetrahydro-1,4-benzoxazepine] | ≤ 10
4 | COc1ccc2c(N3CCOc4ccc(-c5cnc6nc(C)[nH]c6c5)cc4C3)ncnc2c1 [Example 565, 7-(2-methyl-1H-imidazo[4,5-b]pyridin-6-yl)-4-[7-(methyloxy)quinazolin-4-yl]-2,3,4,5-tetrahydro-1,4-benzoxazepine] | 50 to 250
5 | Cc1nc2ncc(-c3ccc4c(c3)CN(c3ncnc5c3CCC(C(F)(F)F)C5)CCO4)cc2[nH]1 (stereo not shown) [Example 566, 7-(2-methyl-1H-imidazo[4,5-b]pyridin-6-yl)-4-[7-(trifluoromethyl)-5,6,7,8-tetrahydroquinazolin-4-yl]-2,3,4,5-tetrahydro-1,4-benzoxazepine] | 10 to 50
6 | COCC1CCc2c(ncnc2N2CCOc3ccc(-c4cnc5nc(C)[nH]c5c4)cc3C2)C1 (stereo not shown) [Example 567, 7-(2-methyl-1H-imidazo[4,5-b]pyridin-6-yl)-4-{7-[(methyloxy)methyl]-5,6,7,8-tetrahydrquinazolin-4-yl}-2,3,4,5-tetrahydro-1,4-benzoxazepine] | 50 to 250
7 | COc1ccc2c(N3CCOc4ccc(-c5cnc6[nH]c(C)nc6c5)cc4C3)nc(C)nc2c1 [Example 568, 7-(2-methyl-1H-imidazo[4,5-b]pyridin-6-yl)-4-[2-methyl-7-(methyloxy)quinazolin-4-yl]-2,3,4,5-tetrahydro-1,4-benzoxazepine] | 50 to 250
8 | COc1ccc2c(N3CCOc4ccc(-c5ccc(-c6c[nH]cn6)cc5)cc4C3)nc(C)nc2c1 [Example 570, 7-[4-(1H-imidazol-4-yl)phenyl]-4-[2-methyl-7-(methyloxy)quinazolin-4-yl]-2,3,4,5-tetrahydro-1,4-benzoxazepine] | 50 to 250
9 | CC1(C)CCc2ncnc(N3CCOc4ccc(-c5cnc6c(c5)S(=O)(=O)NC(=O)N6)cc4C3)c2C1 [Example 571, 7-[4-(6,6-dimethyl-5,6,7,8-tetrahydroquinazolin-4-yl)-2,3,4,5-tetrahydro-1,4-benzoxazepin-7-yl]-2H-pyrido[2,3-e][1,2,4]thiadiazin-3(4H)-one 1,1-dioxide] | 50 to 250
10 | CC1(C)CCc2ncnc(N3CCOc4ccc(-c5cnc(Cl)c(OC(F)F)c5)cc4C3)c2C1 [Example 573, 7-{6-chloro-5-[(difluoromethyl)oxy]pyridin-3-yl}-4-(6,6-dimethyl-5,6,7,8-tetrahydroquinazolin-4-yl)-2,3,4,5-tetrahydro-1,4-benzoxazepine] | 250 to 1000
11 | CC1(C)CCc2ncnc(N3CCOc4ccc(-c5cnc(Cl)c(CS(C)(=O)=O)c5)cc4C3)c2C1 [Example 574, 7-{6-chloro-5-[(methylsulfonyl)methyl]pyridin-3-yl}-4-(6,6-dimethyl-5,6,7,8-tetrahydroquinazolin-4-yl)-2,3,4,5-tetrahydro-1,4-benzoxazepine] | 1000 to 2000
12 | CC1(C)CCc2ncnc(N3CCOc4ccc(-c5cnc(N)c(S(=O)(=O)N6C7CCC6CC(N)C7)c5)cc4C3)c2C1 (stereo not shown) [Example 575, 8-({2-amino-5-[4-(6,6-dimethyl-5,6,7,8-tetrahydroquinazolin-4-yl)-2,3,4,5-tetrahydro-1,4-benzoxazepin-7-yl]pyridin-3-yl}sulfonyl)-8-azabicyclo[3.2.1]octan-3-amine] | 10 to 50
13 | CCOC(=O)Nc1nc2ncc(-c3ccc4c(c3)CN(c3ncnc5c3CC(C)(C)CC5)CCO4)cc2[nH]1 [Example 576, ethyl {6-[4-(6,6-dimethyl-5,6,7,8-tetrahydroquinazolin-4-yl)-2,3,4,5-tetrahydro-1,4-benzoxazepin-7-yl]-1H-imidazo[4,5-b]pyridin-2-yl}carbamate] | 10 to 50
14 | CC[C@H]1CCc2c(nc(C)nc2N2CCOc3ccc(-c4cnc5nc(NC(=O)OC)[nH]c5c4)cc3C2)C1 [Example 577, methyl (6-{4-[(7S)-7-ethyl-2-methyl-5,6,7,8-tetrahydroquinazolin-4-yl]-2,3,4,5-tetrahydro-1,4-benzoxazepin-7-yl}-1H-imidazo[4,5-b]pyridin-2-yl)carbamate] | 10 to 50
15 | CC[C@H]1CCc2c(ncnc2N2CCOc3ccc(-c4cnc5nc(NC(=O)OC)[nH]c5c4)cc3C2)C1 [Example 578, methyl (6-{4-[(7S)-7-ethyl-5,6,7,8-tetrahydroquinazolin-4-yl]-2,3,4,5-tetrahydro-1,4-benzoxazepin-7-yl}-1H-imidazo[4,5-b]pyridin-2-yl)carbamate] | 10 to 50
16 | COC(=O)Nc1nc2ccc(-c3ccc4c(c3)CN(c3nc(CN(C)C)nc5c3CC(C)(C)CC5)CCO4)cc2[nH]1 [Example 579, methyl [6-(4-{2-[(dimethylamino)methyl]-6,6-dimethyl-5,6,7,8-tetrahydroquinazolin-4-yl}-2,3,4,5-tetrahydro-1,4-benzoxazepin-7-yl)-1H-benzimidazol-2-yl]carbamate] | 250 to 1000
17 | COC(=O)Nc1nc2ncc(-c3ccc4c(c3)CN(c3nc(CN(C)C)nc5c3CC(C)(C)CC5)CCO4)cc2[nH]1 [Example 580] | 50 to 250
18 | COC(=O)Nc1nc2ncc(-c3ccc4c(c3)CN(c3ncnc5c3CC(C)(C)CC5)CCO4)cc2[nH]1 [Example 582, methyl {6-[4-(6,6-dimethyl-5,6,7,8-tetrahydroquinazolin-4-yl)-2,3,4,5-tetrahydro-1,4-benzoxazepin-7-yl]-1H-imidazo[4,5-b]pyridin-2-yl}carbamate] | ≤ 10
19 | COC(=O)Nc1nc2ncc(-c3ccc4c(c3)CN(c3ncnc5c3CC(C)(C)C=C5)CCO4)cc2[nH]1 [Example 583, methyl {6-[4-(6,6-dimethyl-5,6-dihydroquinazolin-4-yl)-2,3,4,5-tetrahydro-1,4-benzoxazepin-7-yl]-1H-imidazo[4,5-b]pyridin-2-yl}carbamate] | ≤ 10
20 | Cc1nc2ccc(-c3ccc4c(c3)CN(c3nc(CNC5CC5)nc(C)c3Cc3ccc(F)cc3)CCO4)cc2[nH]1 [Example 584, N-({5-[(4-fluorophenyl)methyl]-4-methyl-6-[7-(2-methyl-1H-benzimidazol-6-yl)-2,3-dihydro-1,4-benzoxazepin-4(5H)-yl]pyrimidin-2-yl}methyl)cyclopropanamine] | ≤ 10
21 | COCCNCc1nc2c(c(N3CCOc4ccc(-c5ccc6nc(C)[nH]c6c5)cc4C3)n1)CC(C)(C)CC2 [Example 585, N-({6,6-dimethyl-4-[7-(2-methyl-1H-benzimidazol-6-yl)-2,3-dihydro-1,4-benzoxazepin-4(5H)-yl]-5,6,7,8-tetrahydroquinazolin-2-yl}methyl)-2-(methyloxy)ethanamine] | 10 to 50
22 | Cc1nc2ccc(-c3ccc4c(c3)CN(c3nc(CNCCF)nc5c3CC(C)(C)CC5)CCO4)cc2[nH]1 [Example 586, N-({6,6-dimethyl-4-[7-(2-methyl-1H-benzimidazol-6-yl)-2,3-dihydro-1,4-benzoxazepin-4(5H)-yl]-5,6,7,8-tetrahydroquinazolin-2-yl}methyl)-2-fluoroethanamine] | ≤ 10
23 | Cc1nc2ccc(-c3ccc4c(c3)CN(c3nc(CNC5CCC5)nc5c3CC(C)(C)CC5)CCO4)cc2[nH]1 [Example 587, N-({6,6-dimethyl-4-[7-(2-methyl-1H-benzimidazol-6-yl)-2,3-dihydro-1,4-benzoxazepin-4(5H)-yl]-5,6,7,8-tetrahydroquinazolin-2-yl}methyl)cyclobutanamine] | 10 to 50
24 | Cc1nc2ccc(-c3ccc4c(c3)CN(c3nc(CNC5CC5)nc5c3CC(C)(C)CC5)CCO4)cc2[nH]1 [Example 588, N-({6,6-dimethyl-4-[7-(2-methyl-1H-benzimidazol-6-yl)-2,3-dihydro-1,4-benzoxazepin-4(5H)-yl]-5,6,7,8-tetrahydroquinazolin-2-yl}methyl)cyclopropanamine] | 10 to 50
25 | CCNCc1nc2c(c(N3CCOc4ccc(-c5ccc6nc(C)[nH]c6c5)cc4C3)n1)CC(C)(C)CC2 [Example 589, N-({6,6-dimethyl-4-[7-(2-methyl-1H-benzimidazol-6-yl)-2,3-dihydro-1,4-benzoxazepin-4(5H)-yl]-5,6,7,8-tetrahydroquinazolin-2-yl}methyl)ethanamine] | ≤ 10
26 | COCCNCc1nc2c(c(N3CCOc4ccc(-c5cnc6nc(C)[nH]c6c5)cc4C3)n1)CC(C)(C)CC2 [Example 590, N-({6,6-dimethyl-4-[7-(2-methyl-1H-imidazo[4,5-b]pyridin-6-yl)-2,3-dihydro-1,4-benzoxazepin-4(5H)-yl]-5,6,7,8-tetrahydroquinazolin-2-yl}methyl)-2-(methyloxy)ethanamine] | ≤ 10
27 | Cc1nc2ncc(-c3ccc4c(c3)CN(c3nc(CNCC(F)(F)F)nc5c3CC(C)(C)CC5)CCO4)cc2[nH]1 [Example 591, N-({6,6-dimethyl-4-[7-(2-methyl-1H-imidazo[4,5-b]pyridin-6-yl)-2,3-dihydro-1,4-benzoxazepin-4(5H)-yl]-5,6,7,8-tetrahydroquinazolin-2-yl}methyl)-2,2,2-trifluoroethanamine] | 10 to 50
28 | Cc1nc2ncc(-c3ccc4c(c3)CN(c3nc(CNCC(F)F)nc5c3CC(C)(C)CC5)CCO4)cc2[nH]1 [Example 592, N-({6,6-dimethyl-4-[7-(2-methyl-1H-imidazo[4,5-b]pyridin-6-yl)-2,3-dihydro-1,4-benzoxazepin-4(5H)-yl]-5,6,7,8-tetrahydroquinazolin-2-yl}methyl)-2,2-difluoroethanamine] | ≤ 10
